# US20220267288A1, “CARDIAC THERAPEUTIC” (priority 2019, published 2022)
# What was measured:
# H9c2 cells = assay: Cytotoxicity (dead-cell protease, Mitochondrial ToxGlo) in differentiated H9c2 cells; type: cell-based
# Experimental: (§1) H9c2 cell line was purchased from American Tissue Type Collection (ATCC) (Manassas, Va.). The cells were cultured in low-glucose DMEM growth media (Cat No: 31600, Thermo Fisher Scientific, Waltham, Mass.) supplemented with 1.5 g/L sodium bicarbonate, 25 mM HEPES, 10% fetal bovine serum (FBS) (GE Healthcare, Singapore), 100 units/mL penicillin, 100 μg/mL streptomycin and 250 ng/mL amphotericin B in 75-cm^2 tissue-culture flasks at 37° C. in a humidified atmosphere of 5% CO2. Cells were fed every 2-3 days and sub-cultured once 70-80% confluency was achieved to prevent the loss of differentiation potential. For differentiation, H9c2 cells were seeded at a density of 100,000 cells/well in 12-well plates. The cells were maintained for 1 day in low-glucose high-serum growth media to allow for cell attachment. Subsequently, cells were differentiated using 1 μM ATRA.
# (§2) H9c2 cells were seeded in a white chimney plate and differentiated. The media was changed to DMEM with 10 mM galactose, 2 mM glutamine (6 mM final), 5 mM HEPES, 1 mM sodium pyruvate, 100 U/mL penicillin, 100 μg/mL streptomycin, 0.25 μg/mL amphotericin B, 1% FBS, 1× insulin-transferrin-selenium and 1 μM ATRA for 48 h to overcome the Crabtree effect. […] The cytotoxicity and intracellular ATP content were measured concurrently using Mitochondrial ToxGlo™ kit (Promega, Madison, Wis.) using manufacturer's protocol. Mitochondrial ToxGlo™ assay measures the cell viability using fluorogenic peptide bis-alanine-alanine-phenylalanine-R110 (bis-AAF-R110). Bis-AAF-R110 is a selective peptide that measures protease activity in dead cells since it is impermeable to live cells. Here, the fluorescence derived from metabolized bis-AAF-R110 was measured at different concentrations of the test compounds and compared to control. As the concentration of cytotoxic compound increases, the number of dead cells increases, leading to a higher fluorescence signal. ATP is measured by adding the ATP Detection Reagent, resulting in cell lysis and generation of a luminescent signal proportional to the amount of ATP present. […]
# [1] = as above; type: cell-based; conditions: rat, differentiated H9c2 cells, 6 h exposure, read-out: cytotoxicity EC50 (bis-AAF-R110 dead-cell protease fluorescence)
# Experimental: as §1, §2
# [2] = system: chronic atrioventricular block dog; assay: Paroxysmal atrial fibrillation model in chronic atrioventricular block dogs; type: in vivo
# Experimental: Experiments were performed using female beagle dogs weighing approximately 10 kg (n=4). Animals were obtained through Kitayama Labes Co., Ltd. (Nagano, Japan). All experiments were approved by the Toho University Animal Care and User Committee (No. 19-52-395) and performed according to the Guideline for the Care and Use of Laboratory Animals of Toho University.
# The catheter ablation technique of atrioventricular node was employed as previously described^11,14. The dogs were anesthetized with pentobarbital sodium (30 mg/kg, i.v.). After intubation with a cuffed endotracheal tube, the respiration was controlled with room air using a volume-limited ventilator (SN-480-3; Shinano Manufacturing Co., Ltd., Tokyo, Japan). Tidal volume and respiratory rate were set at 20 mL/kg and 15 breaths/min, respectively. Heparin calcium (100 IU/kg, i.v.) was administered to prevent blood clotting. The surface lead II electrocardiogram was continuously monitored. A quad-polar electrodes catheter with a large tip of 4 mm (D7-DL-252; Cordis-Webster Inc., CA, USA) was inserted through the catheter sheath (FAST-CATH™ 406119; St. Jude Medical Daig Division, Inc., Minnetonka, Minn., USA) placed at the right femoral vein and positioned across the tricuspid valve under the guide of bipolar electrogram from the distal electrode pair. The optimal site for the atrioventricular node ablation; namely, the compact atrioventricular node, was determined on the basis of the intra-cardiac electrogram, of which a very small His deflection was recorded and atrial/ventricular voltage ratio was >2. The power source for the atrioventricular nodal ablation was obtained from an electrosurgical generator (MS-1500; Senko Medical Instrument Manufacturing Co., Ltd., Tokyo, Japan), which delivers continuous unmodulated radiofrequency energy at a frequency of 500 kHz. After determining the proper location, the radiofrequency energy of 20 W was delivered for 10 s from the tip electrode to an indifferent patch electrode positioned on the animal's back, which was continued then for 30 s if junctional ectopic complexes were induced. The endpoint of this procedure was the development of the complete atrioventricular block with an onset of stable idioventricular escaped rhythm. All surgical procedures described above were performed under the sterile condition.
# The paroxysmal atrial fibrillation model was prepared as previously reported^12,13. More than 3 months after the induction of atrioventricular block, the dogs (n=4) were anesthetized with pentobarbital sodium (30 mg/kg, i.v.). After intubation with a cuffed endotracheal tube, the dogs were artificially ventilated with 0.5-1.5% isoflurane in oxygen using a volume-limited ventilator (SN-480-3; Shinano Manufacturing Co., Ltd.). Tidal volume and respiratory rate were set at 20 mL/kg and 15 breaths/min, respectively. The surface lead II electrocardiogram was obtained from the limb electrodes. […] An indwelling needle (Surflo® 18G; Terumo Corporation, Tokyo, Japan) was placed at the right femoral artery, through which the arterial blood pressure was measured.
# Three sets of standard 6-French quad-polar electrodes catheter (Cordis-Webster Inc.) were used. First one was positioned at the high right atrium through the right femoral vein to electrically pace the sinus nodal area and to simultaneously obtain the right atrial electrogram. Second one was positioned in the esophagus via os to record to the left atrial electrogram. Third one was positioned at the inter-atrial septum of the right atrium through the left femoral vein to electrically induce paroxysmal atrial fibrillation as described below. The optimal sites of each catheter were determined by the temporal relationship between the bipolar atrial electrograms from the distal electrodes pair and P wave of the electrocardiogram. […]
# [3] = high dose 3 mg/kg i.v., for 10-60 min
structure (smiles),measurement,setting,value
CCCCc1oc2ccc(NS(C)(=O)=O)cc2c1C(=O)c1ccc(OCCCN(CCCC)CCCC)cc1.Cl [Dronedarone],EC50,"H9c2 cells; 6 h exposure, read-out: cytotoxicity EC50 (bis-AAF-R110 dead-cell protease fluorescence)",1200 nM
same,increase in the protease activity (cell death),H9c2 cells; no pre-treatment with EETs,150-200%
same,EC50 at 6 h,[1],1210 nM
"Cl.[2H]c1c(NS(C)(=O)=O)c([2H])c2c(C(=O)c3ccc(OCCCN(CCCC)CCCC)cc3)c(CCCC)oc2c1[2H] [Poyendarone, Methanesulfonamide, N-(2-butyl-3-(4-(3-(dibutylamino)propoxy)benzoyl)-1-benzo(4,6,7-d3)-furan-5-yl)hydrochloride]",lethal ventricular arrhythmias or hemodynamic collapse,"[2]; 0.3 and 3 mg/kg i.v., experimental period",No animals exerted any lethal ventricular arrhythmias or hemodynamic collapse leading to their death
same,duration of atrial fibrillation after burst pacing (typical tracing),"[2]; 20 min after 3 mg/kg, pre-drug control 6.9 s",1.8 s
same,effect on AERP(CL200),[2]; high dose 3 mg/kg i.v.,no significant change
same,effect on VERP(CL400),[2]; high dose 3 mg/kg i.v.,no significant change
same,effect on cycle length of atrial fibrillation,[2]; high dose 3 mg/kg i.v.,"tended to be prolonged, which did not achieve statistical significance"
same,effect on mean blood pressure,[2]; high dose 3 mg/kg i.v.,hardly altered
same,effect on sinoatrial rate,[2]; high dose 3 mg/kg i.v.,hardly altered
same,effect on IACT(CL300),"[2]; high dose 3 mg/kg i.v., at 10 min",prolonged
same,effect on IACT(CL400),"[2]; high dose 3 mg/kg i.v., at 10 min and for 30-60 min",prolonged
same,effect on AERP(CL300),[2]; [3],prolonged
same,effect on AERP(CL400),[2]; [3],prolonged
same,effect on IACT(CL200),[2]; [3],prolonged
same,effect on duration of atrial fibrillation,[2]; [3],shortened
same,effect on AERP(CL200),[2]; low dose 0.3 mg/kg i.v.,no significant change
same,effect on AERP(CL300),[2]; low dose 0.3 mg/kg i.v.,no significant change
same,effect on IACT(CL200),[2]; low dose 0.3 mg/kg i.v.,did not alter
same,effect on IACT(CL300),[2]; low dose 0.3 mg/kg i.v.,did not alter
same,effect on IACT(CL400),[2]; low dose 0.3 mg/kg i.v.,did not alter
same,effect on VERP(CL400),[2]; low dose 0.3 mg/kg i.v.,no significant change
same,effect on cycle length of atrial fibrillation,[2]; low dose 0.3 mg/kg i.v.,did not alter
same,effect on duration of atrial fibrillation,[2]; low dose 0.3 mg/kg i.v.,did not alter
same,effect on mean blood pressure,[2]; low dose 0.3 mg/kg i.v.,hardly altered
same,effect on sinoatrial rate,[2]; low dose 0.3 mg/kg i.v.,hardly altered
same,effect on AERP(CL400),"[2]; low dose 0.3 mg/kg i.v., at 20 min",prolonged
